Test results published in PubChem BioAssay AID1934 (Broad Institute, 2009).
Results filed as inconclusive are left out.

System: DRD oncogenic fibroblast viability, ATP luminescence
Test: DRD fibroblast viability loss – cell-based, non-viral oncogenic, luminescence, dose response (AID 1934)

Compound: C=C(C=O)CC1CC(O)[C@]2(C)OC3CC4OC5C[C@]6(C)O[C@]7(C)CCC8OC9C[C@]%10(C)OC%11C(C)=CC(=O)OC%11CC%10OC9C[C@@H](C)C8OC7CC6O[C@]5(C)CC5OC5C4OC3CC2O1 (stereo partly specified)
- EC50: 0.824 µM
